Data from PubChem BioAssay (NCI).
“And” between values parts separate entries of the source, which are not always exact repeats. Identical values can stand only once.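 Five concentrations, 48 hours, 96-well plates. At the GI50, growth is halved. Definition used: TGI = concentration required for complete inhibition of growth.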

How the values were obtained:
Assay in all cases: growth of human tumour cells (NCI), 48 h
PC-3 prostate = system: PC-3 prostate
SK-OV-3 ovarian = system: SK-OV-3 ovarian
DMS 273 small cell lung = system: DMS 273 small cell lung
T-47D breast = system: T-47D breast
OVCAR-5 ovarian = system: OVCAR-5 ovarian
NCI-H460 lung = system: NCI-H460 lung
UACC-62 melanoma = system: UACC-62 melanoma
DLD-1 colon = system: DLD-1 colon
OVCAR-4 ovarian = system: OVCAR-4 ovarian
HCT-15 colon = system: HCT-15 colon

With `CCC1=C(CC2NCCc3ccccc32)CC2c3cc(OC)c(OC)cc3CCN2C1` (stereo not drawn) the GI50 (PC-3 prostate) was 3.48 µM, the GI50 (SK-OV-3 ovarian) was 4.07 µM and the TGI (SK-OV-3 ovarian) was 25.6 µM and 17.1 µM. The TGI (DMS 273 small cell lung) was 3.02 µM, the GI50 (T-47D breast) was 3.9 µM and the TGI (T-47D breast) was 16.8 µM and 5.85 µM. For the same molecule, the GI50 (OVCAR-5 ovarian) was 6.15 µM, the GI50 (NCI-H460 lung) was 3.28 µM and the TGI (NCI-H460 lung) was 11.7 µM and 3.57 µM. For the same molecule, the GI50 (UACC-62 melanoma) was 13.9 µM, the TGI (UACC-62 melanoma) was 27.5 µM and 6.66 µM and the TGI (DLD-1 colon) was > 100 µM. For the same molecule, the GI50 (OVCAR-4 ovarian) was 3.87 µM, the GI50 (HCT-15 colon) was 5.17 µM and the TGI (HCT-15 colon) was 30.8 µM and 20.4 µM.
For `CCOC(=O)CN1C(=O)c2cc([N+](=O)[O-])cc3cc([N+](=O)[O-])cc(c23)C1=O`, the TGI (PC-3 prostate) was > 100 µM, the TGI (SK-OV-3 ovarian) was > 100 µM and the TGI (DMS 273 small cell lung) was > 100 µM. For the same molecule, the TGI (T-47D breast) was > 100 µM, the TGI (OVCAR-5 ovarian) was > 100 µM and the TGI (NCI-H460 lung) was > 100 µM. For the same molecule, the TGI (UACC-62 melanoma) was > 100 µM, the TGI (DLD-1 colon) was > 100 µM and the TGI (OVCAR-4 ovarian) was > 100 µM. For the same molecule, the TGI (HCT-15 colon) was > 100 µM.
With `N#Cc1cccc(N2C(=O)C3C4C=CC(C3C2=O)C2C(=O)N(c3cccc(C#N)c3)C(=O)C42)c1` (stereo not drawn) the TGI (PC-3 prostate) was > 100 µM, the TGI (SK-OV-3 ovarian) was 34.9 µM and the TGI (DMS 273 small cell lung) was > 31.6 µM. The TGI (T-47D breast) was > 31.6 µM, the TGI (OVCAR-5 ovarian) was > 63.1 µM and the TGI (NCI-H460 lung) was > 63.1 µM. For the same molecule, the TGI (UACC-62 melanoma) was > 100 µM, the TGI (DLD-1 colon) was > 46.4 µM and the TGI (OVCAR-4 ovarian) was > 63.1 µM. For the same molecule, the TGI (HCT-15 colon) was > 63.1 µM.
In the case of `CC(=O)[O-].N.N.N.N.[Co+3].[O-][Cl+3]([O-])([O-])[O-].[OH3+]`, the GI50 (SK-OV-3 ovarian) is reported as > 100 µM, the TGI (SK-OV-3 ovarian) is reported as > 100 µM and the GI50 (DMS 273 small cell lung) is reported as > 100 µM. The TGI (DMS 273 small cell lung) was > 100 µM, the GI50 (OVCAR-5 ovarian) was > 100 µM and the TGI (OVCAR-5 ovarian) was > 100 µM. For the same molecule, the GI50 (NCI-H460 lung) was > 100 µM, the TGI (NCI-H460 lung) was > 100 µM and the GI50 (UACC-62 melanoma) was > 100 µM. The TGI (UACC-62 melanoma) was > 100 µM, the GI50 (DLD-1 colon) was > 100 µM and the TGI (DLD-1 colon) was > 100 µM. For the same molecule, the GI50 (OVCAR-4 ovarian) was > 100 µM, the TGI (OVCAR-4 ovarian) was > 100 µM and the GI50 (HCT-15 colon) was > 100 µM. For the same molecule, the TGI (HCT-15 colon) was > 100 µM.
In the case of `CC(=O)Oc1ccc2c(c1)C(=O)c1nc(C)c(C)nc1C2=O`, the TGI (SK-OV-3 ovarian) is reported as > 100 µM, the TGI (DMS 273 small cell lung) is reported as > 100 µM and the TGI (OVCAR-5 ovarian) is reported as > 100 µM. For the same molecule, the TGI (NCI-H460 lung) was > 90.1 µM, the TGI (UACC-62 melanoma) was 38.8 µM and the TGI (DLD-1 colon) was > 100 µM. The TGI (OVCAR-4 ovarian) was > 89 µM and the TGI (HCT-15 colon) was > 100 µM.
With `O=C[C@@H](CO)O[C@H](C=O)n1cnc2c(=O)[nH]cnc21` the TGI (PC-3 prostate) was 1780 µM, the TGI (SK-OV-3 ovarian) was 1630 µM and the TGI (DMS 273 small cell lung) was 1570 µM. The TGI (T-47D breast) was 404 µM, the TGI (OVCAR-5 ovarian) was 1820 µM and the TGI (NCI-H460 lung) was 2130 µM. It also gave a TGI (UACC-62 melanoma) of 1670 µM, a TGI (DLD-1 colon) of 395 µM and a TGI (OVCAR-4 ovarian) of 1150 µM. It also gave a TGI (HCT-15 colon) of 417 µM.
In the case of `COc1cc(C(=O)c2cocc2C(=O)c2ccc3c(c2)OCO3)cc(OC)c1OC`, the TGI (PC-3 prostate) is reported as > 35.9 µM, the TGI (SK-OV-3 ovarian) is reported as 47.3 µM and the TGI (DMS 273 small cell lung) is reported as > 100 µM. For the same molecule, the TGI (OVCAR-5 ovarian) was > 66.3 µM, the TGI (NCI-H460 lung) was 23.4 µM and the TGI (UACC-62 melanoma) was > 47.3 µM. The TGI (DLD-1 colon) was > 100 µM, the TGI (OVCAR-4 ovarian) was > 54.3 µM and the TGI (HCT-15 colon) was 35.3 µM.
